Like-named read-outs stand apart in the source and are kept apart here.
Legend:
CB2 = CB2 (Homo sapiens, UniProt P34972); details: background statement with literature references; cited from earlier work
CB1 receptors = CB1 receptors (Homo sapiens, UniProt P21554); details: cited from earlier work
TRPV1 channels = assay: Calcium assay of TRPV1 channel activity in HEK-TRPV1 cells; type: cell-based; details: Fluo-4 loaded, 1 mM external calcium chloride, 0-20 seconds baseline, compound added at 20 seconds, FIGS. 1A-1D
Experimental: Molecular Pharmacology, 2016, volume 90, pages 300-308) HEK 293 cells with TRPV1 channels have been used as model systems (P. Geppetti and M. Trevisani, Activation and sensitisation of the vanilloid receptor: role in gastrointestinal inflammation and function, British Journal of Pharmacology, 2004, volume 141, pages 1313-1320);
HEK TRexTRPV1 cultured in DMEM, 10% Fetal Bovine Serum, 2 mM L-glutamine, 10 microgramg/m1 Blasticidin (Calbiochem, San Diego Calif.), […] Zeocin (InvivoGen, San Diego Calif.), followed by inducing indicated transgene expression using 1 microgram/ml Tetracycline for 16-24 hrs. Comparisons made to untransfected HEK cells or HEKTRexTRPV1 with or without induction.
[…] Cells transferred to 96-well plates at 50,000 cells/well and stimulated as indicated. Calcium signals acquired using a Flexstation 3 (Molecular Devices, Sunnydale, USA). Data are analyzed according to the methods in I. Diaz-Franulic, J. Caceres-Molina, R. V. Sepulveda, F. Gonzalez-Nilo, R. Latorre, Structure-Driven Pharmacology of Transient Receptor Potential Channel Vanilloid 1, Molecular Pharmacology, 2016, volume 90, pages 300-8. […]

[1] = background statement with literature references

Sequence of CB1 receptors (P21554 whole entry): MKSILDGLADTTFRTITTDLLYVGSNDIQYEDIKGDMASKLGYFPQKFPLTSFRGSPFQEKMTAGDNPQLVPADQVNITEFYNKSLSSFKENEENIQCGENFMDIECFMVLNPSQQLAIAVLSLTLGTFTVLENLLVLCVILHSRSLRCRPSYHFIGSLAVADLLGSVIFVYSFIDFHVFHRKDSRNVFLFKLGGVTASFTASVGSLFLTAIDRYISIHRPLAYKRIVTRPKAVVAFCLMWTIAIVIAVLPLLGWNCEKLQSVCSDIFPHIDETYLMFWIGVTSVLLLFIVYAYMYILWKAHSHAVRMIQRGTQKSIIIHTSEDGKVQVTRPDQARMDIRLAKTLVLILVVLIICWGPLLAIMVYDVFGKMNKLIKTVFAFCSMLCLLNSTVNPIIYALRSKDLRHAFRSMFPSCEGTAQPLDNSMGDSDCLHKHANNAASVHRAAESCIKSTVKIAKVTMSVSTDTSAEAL
Sequence of CB2 (P34972 whole entry, species assumed): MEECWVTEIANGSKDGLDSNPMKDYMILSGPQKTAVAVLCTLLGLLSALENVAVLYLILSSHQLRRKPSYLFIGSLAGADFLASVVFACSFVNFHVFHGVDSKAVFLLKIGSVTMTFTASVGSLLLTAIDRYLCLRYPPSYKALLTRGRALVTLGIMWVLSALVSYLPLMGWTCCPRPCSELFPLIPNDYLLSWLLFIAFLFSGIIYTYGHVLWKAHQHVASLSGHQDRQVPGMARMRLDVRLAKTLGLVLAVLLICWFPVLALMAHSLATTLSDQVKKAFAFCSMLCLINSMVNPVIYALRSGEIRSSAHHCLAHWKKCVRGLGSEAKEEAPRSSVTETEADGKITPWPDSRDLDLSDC

Structure (SMILES)	CB2 receptor modulation (kind of action) (CB2)	CB1 receptor modulation (kind of action) (CB1 receptors; [1])	biological finger print and dose response on TRPV1 channels (calcium signal), synthesized vs reference standard cannabidiol (TRPV1 channels)	CB1 receptor modulation (kind of action) (CB1 receptors)
C=C(C)[C@@H]1CCC(C)=C[C@H]1c1c(O)cc(CCCCC)cc1O [cannabidiol (11, CBD), Cannabidiol]	do not interact significantly	do not interact significantly	same “biological finger print” and dose response	
C=C(C)[C@@H]1CCC(C)=C[C@H]1c1c(O)cc(CCC)cc1O [cannabidivarin (12), cannabidivarin]	do not interact significantly	do not interact significantly		
CCCCCc1cc(O)c2c(c1)OC(C)(C)c1ccc(C)cc1-2 [cannabinol (10), cannabinol]	modest agonists			weak agonist
CCCc1cc(O)c2c(c1)OC(C)(C)[C@@H]1CCC(C)=C[C@@H]21 [tetrahydrocannabivarin (9), tetrahydrocannabivarin]	modest agonists	weak antagonist		

— patent publication US11685724B2, “Synthetic intermediates for novel cannabinoids and cannabinoid acids and their derivatives” (priority 2018, dated 2023)
